According to US8835472B2, “Compounds, pharmaceutical compositions and uses thereof” (Boehringer Ingelheim International GmbH, priority 2010, dated 2014):

Each compound was assayed against human ACC2 (Homo sapiens (Human), UniProt O00763) (assay: ACC2 assay, spectrophotometric 384 well assay (NADH-linked, coupled lactate dehydrogenase/pyruvate kinase reaction)). Details: hACC2 construct lacking the 128 N-terminal amino acids; 25° C., 340 nm over 15 minutes.
Assay type: biochemical
Outline: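 Kinetic NADH-linked assay (pyruvate kinase/lactate dehydrogenase coupling) with baculovirus-expressed hACC2 missing its first 128 amino acids. Started with 500 μM ATP and 200 μM each NADH and acetyl-CoA; slope followed 15 min at 25 °C, pH 7.5. No-acetyl-CoA wells define 0%; IC50 by nonlinear regression.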

Chain of human ACC2 (O00763 129-2458): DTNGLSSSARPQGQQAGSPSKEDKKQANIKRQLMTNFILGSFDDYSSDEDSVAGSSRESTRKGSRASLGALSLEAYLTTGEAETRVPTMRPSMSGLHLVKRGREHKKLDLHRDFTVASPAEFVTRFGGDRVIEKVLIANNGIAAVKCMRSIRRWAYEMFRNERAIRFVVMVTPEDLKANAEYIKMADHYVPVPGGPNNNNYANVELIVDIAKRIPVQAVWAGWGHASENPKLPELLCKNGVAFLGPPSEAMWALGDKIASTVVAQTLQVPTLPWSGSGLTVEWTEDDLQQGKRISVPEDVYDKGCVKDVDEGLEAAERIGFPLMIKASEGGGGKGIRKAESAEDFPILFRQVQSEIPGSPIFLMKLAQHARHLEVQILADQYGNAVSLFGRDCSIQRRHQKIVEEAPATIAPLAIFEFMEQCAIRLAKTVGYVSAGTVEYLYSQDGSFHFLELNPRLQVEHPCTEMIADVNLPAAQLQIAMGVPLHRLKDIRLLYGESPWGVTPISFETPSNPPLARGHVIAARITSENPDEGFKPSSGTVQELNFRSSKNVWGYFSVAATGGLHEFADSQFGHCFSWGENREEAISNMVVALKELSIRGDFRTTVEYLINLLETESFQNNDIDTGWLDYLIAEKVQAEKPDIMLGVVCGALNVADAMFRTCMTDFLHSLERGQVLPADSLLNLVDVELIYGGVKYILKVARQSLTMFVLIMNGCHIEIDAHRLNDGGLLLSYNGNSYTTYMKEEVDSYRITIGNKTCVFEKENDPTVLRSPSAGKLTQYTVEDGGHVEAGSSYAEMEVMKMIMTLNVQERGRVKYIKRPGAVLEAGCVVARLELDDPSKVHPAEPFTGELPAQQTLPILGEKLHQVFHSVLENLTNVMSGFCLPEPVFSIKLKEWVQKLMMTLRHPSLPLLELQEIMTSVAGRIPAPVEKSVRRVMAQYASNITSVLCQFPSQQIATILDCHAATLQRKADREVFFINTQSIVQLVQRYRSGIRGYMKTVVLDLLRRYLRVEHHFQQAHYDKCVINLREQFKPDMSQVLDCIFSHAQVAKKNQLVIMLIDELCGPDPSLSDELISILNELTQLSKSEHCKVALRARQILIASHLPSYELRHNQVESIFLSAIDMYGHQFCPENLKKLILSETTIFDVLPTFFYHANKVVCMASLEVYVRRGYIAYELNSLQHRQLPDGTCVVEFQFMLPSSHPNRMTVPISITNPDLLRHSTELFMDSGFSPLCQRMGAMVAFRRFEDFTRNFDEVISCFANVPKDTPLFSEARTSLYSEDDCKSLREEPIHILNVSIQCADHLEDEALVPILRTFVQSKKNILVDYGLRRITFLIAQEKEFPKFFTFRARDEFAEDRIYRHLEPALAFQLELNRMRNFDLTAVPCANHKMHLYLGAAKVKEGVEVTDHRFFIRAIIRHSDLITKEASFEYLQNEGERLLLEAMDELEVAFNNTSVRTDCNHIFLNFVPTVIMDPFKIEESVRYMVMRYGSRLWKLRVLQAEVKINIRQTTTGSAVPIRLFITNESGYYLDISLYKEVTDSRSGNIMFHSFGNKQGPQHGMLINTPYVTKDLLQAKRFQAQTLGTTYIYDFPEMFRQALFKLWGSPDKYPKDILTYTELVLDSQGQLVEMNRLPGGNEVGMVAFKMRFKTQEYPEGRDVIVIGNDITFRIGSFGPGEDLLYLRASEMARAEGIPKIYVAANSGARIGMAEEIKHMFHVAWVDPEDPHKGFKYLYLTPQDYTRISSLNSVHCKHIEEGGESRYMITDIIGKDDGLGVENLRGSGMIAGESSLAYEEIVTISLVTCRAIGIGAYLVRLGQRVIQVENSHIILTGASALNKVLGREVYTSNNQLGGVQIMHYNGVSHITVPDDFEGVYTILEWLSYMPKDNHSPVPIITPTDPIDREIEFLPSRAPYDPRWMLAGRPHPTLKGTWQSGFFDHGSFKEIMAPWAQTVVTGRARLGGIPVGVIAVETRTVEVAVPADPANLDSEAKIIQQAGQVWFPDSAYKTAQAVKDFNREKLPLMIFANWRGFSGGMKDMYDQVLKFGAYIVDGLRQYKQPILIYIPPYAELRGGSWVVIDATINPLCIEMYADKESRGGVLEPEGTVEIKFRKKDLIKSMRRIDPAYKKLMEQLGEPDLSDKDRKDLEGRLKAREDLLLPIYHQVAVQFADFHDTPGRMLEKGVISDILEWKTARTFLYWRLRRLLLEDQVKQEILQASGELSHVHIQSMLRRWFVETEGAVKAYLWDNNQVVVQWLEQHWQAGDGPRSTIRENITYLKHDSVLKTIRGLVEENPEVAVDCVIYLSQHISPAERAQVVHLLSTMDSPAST

| Structure (SMILES) | IC50 |
| --- | --- |
| CCOc1ccc(C#Cc2ccc(CC(C)NC(=O)C3CC3)cc2)cc1 (stereo not drawn) [Example 4.4] | 150 nM |
| CC(=O)NC(C)Cc1ccc(C#Cc2ccc(Oc3ccccc3)nc2)cc1 (stereo not drawn) [Example 1.8] | 200 nM |
| CCCOc1ccc(C#Cc2ccc(CC(C)NC(C)=O)cc2)c(C)c1 (stereo not drawn) [Example 2.95] | 110 nM |
| COc1ccc(C#Cc2ccc(CC(C)NC(=O)C3CC3)cc2)cc1 (stereo not drawn) [Example 2.56] | 960 nM |
| CCOc1ccc(C#Cc2ccc(CC(C)NC(C)=O)cc2)cc1 (stereo not drawn) [Example 1.28, N-{2-[4-(4-ethoxy-phenylethynyl)-phenyl]-1-methyl-ethyl}-acetamide] | 120 nM |
| CCOc1ccc(C#Cc2ccc(CC(C)NC(=O)CC(C)C)cc2)cc1 (stereo not drawn) [Example 4.23] | 310 nM |
| CCOc1ccc(C#Cc2ccc(CC(C)NS(=O)(=O)C3CC3)cc2)cc1 (stereo not drawn) [Example 5.1] | 250 nM |
| CC(Cc1ccc(C#Cc2ccc(OC3CCCC3)nc2)cc1)NC(=O)C1CC1 (stereo not drawn) [Example 2.66] | 230 nM |
| CC(=O)NC(C)Cc1ccc(C#Cc2ccc(OC3CC3)cc2)cc1 (stereo not drawn) [Example 2.100] | 120 nM |
| CCCOc1ccc(C#Cc2ccc(C(C)(C)CNC(C)=O)cc2)cn1 [Example 2.35] | 130 nM |
| CCCOc1cc(C#Cc2ccc(CC(C)NC(C)=O)cc2)ccn1 (stereo not drawn) [Example 2.14] | 130 nM |
| CC(=O)NC(C)Cc1ccc(C#Cc2ccc(Br)cc2F)cc1 (stereo not drawn) [Example 1.24] | 1100 nM |
| CCOc1ccc(C#Cc2ccc(C(C)NC(=O)C3CC3)cc2)cc1 (stereo not drawn) [Example 4.41] | 2000 nM |
| CC(Cc1ccc(C#Cc2ccc(OC(C)(C)C)cc2)cc1)NC(=O)C1CC1 (stereo not drawn) [Example 2.61] | 2000 nM |
| C/C=C/C(=O)NC(C)Cc1ccc(C#Cc2ccc(OCC)cc2)cc1 (stereo not drawn) [Example 4.3] | 220 nM |
| CC(CNC(=O)C(F)F)c1ccc(C#Cc2cnc(OC3CCC3)nc2)cc1 (stereo not drawn) [Example 4.79] | 160 nM |
| CCOc1ccc(C#Cc2ccc(CC(C)NC(=O)c3cocn3)cc2)cc1 (stereo not drawn) [Example 4.56] | 5600 nM |
| CC(=O)NC(C)Cc1ccc(C#Cc2ccc3cc[nH]c3c2)cc1 (stereo not drawn) [Example 3.5] | 660 nM |
| CCOc1ccc(C#Cc2ccc(CC(C)NC(=O)c3cncnc3)cc2)cc1 (stereo not drawn) [Example 4.14] | 1200 nM |
| CCCCC(=O)NC(C)Cc1ccc(C#Cc2ccc(OCC)cc2)cc1 (stereo not drawn) [Example 4.25] | 540 nM |

| Structure (SMILES) | IC50 |
| --- | --- |
| CC(=O)NC(C)Cc1ccc(C#Cc2ccc(Br)cc2)cc1 (stereo not drawn) [Example 2.15] | 560 nM |
| CC(Cc1ccc(C#Cc2ccc(OC(C)C)nc2)cc1)NC(=O)C1CC1 (stereo not drawn) [Example 2.65] | 480 nM |
| CCOc1ccc(C#Cc2ccc(CC(C)NC(=O)C(C)O)cc2)cc1 (stereo not drawn) [Example 4.5] | 1500 nM |
| CC(=O)NC(C)(C)c1ccc(C#Cc2ccc(OC(C)C)nc2)cc1 [Example 2.39] | 21600 nM |
| CCCOc1ccc(C#Cc2ccc(C(C)(C)CNC(C)=O)cc2)cc1 [Example 2.36] | 140 nM |
| CCOc1ccc(C#Cc2ccc(CC(C)NC(=O)c3ncn[nH]3)cc2)cc1 (stereo not drawn) [Example 4.60] | 24700 nM |
| CC(=O)NC(C)Cc1ccc(C#Cc2nccs2)cc1 (stereo not drawn) [Example 3.16] | 4700 nM |
| CC(=O)NC(C)Cc1ccc(C#Cc2ccc3ccccc3c2)cc1 (stereo not drawn) [Example 1.6] | 880 nM |
| CCOc1ccc(C#Cc2ccc(CC(C)NC(=O)[C@H](C)OC)cc2)cc1 (stereo partly drawn) [Example 4.50] | 6300 nM |
| CC(=O)NC(C)Cc1ccc(C#Cc2ccc3c(c2)OCCO3)cc1 (stereo not drawn) [Example 3.14] | 220 nM |
| CCOc1ccc(C#Cc2ccc(CC(C)NC(=O)C3(C)COC3)cc2)cc1 (stereo not drawn) [Example 4.51] | 510 nM |
| COCCOc1ccc(C#Cc2ccc(CC(C)NC(C)=O)cc2)cn1 (stereo not drawn) [Example 2.24] | 760 nM |
| CCOc1ccc(C#Cc2ccc(C(C)NC(=O)c3cnco3)cc2)cc1 (stereo not drawn) [Example 4.45] | 530 nM |
| CCOc1ccc(C#Cc2ccc(CC(C)NC(=O)c3cc[nH]c3)cc2)cc1 (stereo not drawn) [Example 4.68] | 450 nM |
| CCOc1ccc(C#Cc2ccc(C(C)NC(=O)c3cn[nH]c3)cc2)cc1 (stereo not drawn) [Example 4.55] | 330 nM |
| COc1ncc(C#Cc2ccc(CC(C)NC(C)=O)cc2)c(OC)n1 (stereo not drawn) [Example 2.9] | 1500 nM |
| CC(=O)NC(C)c1ccc(C#Cc2ccc(OC3CCCC3)cc2)cc1 (stereo not drawn) [Example 2.52] | 190 nM |
| CC(=O)NC(C)Cc1ccc(C#Cc2ccc(OC3CCCC3)nc2)cc1 (stereo not drawn) [Example 2.25] | 170 nM |
| COc1ccc(C#Cc2ccc(CC(C)NC(C)=O)cc2)cc1 (stereo not drawn) [Example 2.30] | 330 nM |
| CCCC(=O)NC(C)Cc1ccc(C#Cc2ccc(OCC)cc2)cc1 (stereo not drawn) [Example 4.1, N-(1-(4-((4-ethoxyphenyl)ethynyl)phenyl)propan-2-yl)butyramide] | 210 nM |

More lines, now with the values ahead:

| IC50 | Structure (SMILES) |
| --- | --- |
| 70 nM | CC(=O)N[C@@H](C)c1ccc(C#Cc2ccc(OC3CCC3)cc2)cc1 [Example 14.7] |
| 1400 nM | CC(Cc1ccc(C#Cc2ccc(Oc3cncnc3)cc2)cc1)NC(=O)C1CC1 (stereo not drawn) [Example 23.11] |
| 5200 nM | CC(Cc1ccc(C#Cc2cnc(NCCF)nc2)cc1)NC(=O)C1CC1 (stereo not drawn) [Example 13.53] |
| 16600 nM | CC(=O)NC(C)Cc1ccc(C#Cc2ccc(C(=O)NCc3ccncc3)cc2)cc1 (stereo not drawn) [Example 8.11] |
| 260 nM | CC(=O)NC(C)Cc1ccc(C#Cc2cnc(N3CCCCC3)nc2)cc1 (stereo not drawn) [Example 13.7] |
| 370 nM | CC(=O)NC(C)Cc1ccc(C#Cc2ccnc(N(C)CC3CCCCC3)n2)cc1 (stereo not drawn) [Example 11.23] |
| 1200 nM | CSc1nccc(C#Cc2ccc(CC(C)NC(C)=O)cc2)n1 (stereo not drawn) [Example 14.1, N-{1-Methyl-2-[4-(2-methylsulfanyl-pyrimidin-4-ylethynyl)-phenyl]-ethyl}acetamide] |
| 120 nM | CC(=O)NC(C)Cc1ccc(C#Cc2ccc3c(c2)OCC(C)(C)CO3)cc1 (stereo not drawn) [Example 14.55] |
| 230 nM | COCCCOc1ccc(C#Cc2ccc(CC(C)NC(C)=O)cc2)cc1 (stereo not drawn) [Example 9.30] |
| 250 nM | CC(=O)NC(C)Cc1ccc(C#Cc2ccnc(N(C)CC3CC3)n2)cc1 (stereo not drawn) [Example 11.21] |
| 1400 nM | CC(=O)NC(C)Cc1ccc(C#Cc2ccc(C(=O)NC3CCC3)cc2)cc1 (stereo not drawn) [Example 8.21] |
| 23300 nM | CC(=O)NC(C)Cc1ccc(C#Cc2cccc(C(=O)NC(C)c3ccccc3)c2)cc1 (stereo not drawn) [Example 8.41] |
| 510 nM | CC(=O)N[C@@H](C)c1ccc(C#Cc2ccc(OC(C)C)cc2)cc1 [Example 14.20] |
| 12200 nM | CC(=O)NC(C)Cc1ccc(C#Cc2ccc(OC3CNC3)cc2)cc1 (stereo not drawn) [Example 9.10] |
| 1000 nM | CCN(C)c1ncc(C#Cc2ccc(CC(C)NC(C)=O)cc2)cn1 (stereo not drawn) [Example 13.3] |
| 130 nM | CC(=O)NC(C)Cc1ccc(C#Cc2ccc(-c3ccccc3)cc2)cc1 (stereo not drawn) [21.1] |
| 320 nM | CC(=O)NC(C)Cc1ccc(C#Cc2cnc(OCCC3CC3)nc2)cc1 (stereo not drawn) [Example 12.33] |
| 1100 nM | CCCN(C)C(=O)c1ccc(C#Cc2ccc(CC(C)NC(C)=O)cc2)cc1 (stereo not drawn) [Example 8.10] |
| 1100 nM | CC(=O)NC(C)Cc1ccc(C#Cc2ccnc(N3CCC(c4ccccc4)CC3)n2)cc1 (stereo not drawn) [Example 11.40] |
| 1600 nM | CC(=O)NC(C)Cc1ccc(C#Cc2cccc(C(=O)N3CCC(C)(C)CC3)c2)cc1 (stereo not drawn) [Example 8.37] |
| 290 nM | CCCN(C)c1nccc(C#Cc2ccc(CC(C)NC(C)=O)cc2)n1 (stereo not drawn) [Example 11.46] |
| 630 nM | COCCCOc1cccc(C#Cc2ccc(CC(C)NC(C)=O)cc2)c1 (stereo not drawn) [Example 9.13] |

| IC50 | Structure (SMILES) |
| --- | --- |
| 330 nM | CC(=O)NC(C)Cc1ccc(C#Cc2ccnc(N(C)CC(C)C)n2)cc1 (stereo not drawn) [Example 11.15] |
| 200 nM | CCNc1ncc(C#Cc2ccc(CC(C)NC(=O)N(C)C)cc2)cn1 (stereo not drawn) [Example 13.26] |
| 140 nM | CCC(C)Oc1ccc(C#Cc2ccc(CC(C)NC(C)=O)cc2)cc1 (stereo not drawn) [Example 23.9] |
| 5900 nM | CC(=O)NC(C)Cc1ccc(C#Cc2ccnc(NC(C)C3CC3)n2)cc1 (stereo not drawn) [Example 11.19] |
| 510 nM | CC(C)COc1ccc(C#Cc2ccc(CC(C)NC(=O)C3CC3)cc2)cc1 (stereo not drawn) [Example 14.17] |
| 11500 nM | CC(=O)NC(C)Cc1ccc(C#Cc2ccc(C(=O)N(C)Cc3cccnc3)cc2)cc1 (stereo not drawn) [Example 8.14] |
| 680 nM | CC(Cc1ccc(C#Cc2ccc(OC3CCC3)cc2)cc1)NC(=O)C1CC1 (stereo not drawn) [Example 14.29] |
| 100 nM | CC(=O)NC(C)Cc1ccc(C#Cc2cnc(NCc3ccccc3)nc2)cc1 (stereo not drawn) [Example 13.6] |
| 220 nM | CSc1ccc(C#Cc2ccc(CC(C)NC(C)=O)cc2)cc1 (stereo not drawn) [Example 23.10] |
| 180 nM | CC(=O)NC(C)Cc1ccc(C#Cc2ccc(OCC3(C)CC3)cc2)cc1 (stereo not drawn) [Example 9.11] |
| 130 nM | CC(=O)NC(C)Cc1ccc(C#Cc2cnc(N3CC4CCCC4C3)nc2)cc1 (stereo not drawn) [Example 13.18] |
| 140 nM | CCCOc1ccc(C#Cc2ccc([C@H](C)NC(C)=O)cc2)cc1 [Example 14.23] |
| 10900 nM | CC(=O)NC(C)Cc1ccc(C#Cc2cccc(C(=O)NCc3ccccn3)c2)cc1 (stereo not drawn) [Example 8.23] |
| 970 nM | CC(=O)NC(C)Cc1ccc(C#Cc2cnc(NCc3cccc(C)c3)nc2)cc1 (stereo not drawn) [Example 13.56] |
| 1800 nM | CCOc1ccc(C#Cc2ccc(CC(C)N3CC(C)(C)C3=O)cc2)cc1 (stereo not drawn) [19.1] |
| 1500 nM | CC(=O)NC(C)Cc1ccc(C#Cc2cnc(Oc3cccnc3)nc2)cc1 (stereo not drawn) [Example 12.51] |
| 930 nM | CC(=O)NC(C)Cc1ccc(C#Cc2ccnc(N(C)c3ccccc3)n2)cc1 (stereo not drawn) [Example 11.6] |
| 450 nM | CC(=O)NC(C)Cc1ccc(C#Cc2cnc(NCC3CC3)nc2)cc1 (stereo not drawn) [Example 13.10] |
| 1700 nM | CC(=O)NC(C)Cc1ccc(C#Cc2ccc(OCc3nccs3)cc2)cc1 (stereo not drawn) [Example 31.1, N-(1-Methyl-2-(4-(4-(thiazol-2-ylmethoxy)-phenylethynyl)-phenyl)-ethyl)-acetamide] |
| 1500 nM | CCOc1cc(C#Cc2ccc(C(C)NC(C)=O)cc2)ncn1 (stereo not drawn) [Example 14.4] |
| 280 nM | CCCCOc1ncc(C#Cc2ccc(CC(C)NC(C)=O)cc2)cn1 (stereo not drawn) [Example 12.34] |
| 160 nM | CCCC(C)Nc1ncc(C#Cc2ccc(CC(C)NC(C)=O)cc2)cn1 (stereo not drawn) [Example 13.15] |
